Literature values in article PMC10967909, “Targeted Delivery of Abaloparatide to Spinal Fusion Site Accelerates Fusion Process in Rats” (Biomedicines, 2024).

Tests used:
[1] = target: T1, PTH1R (UMR-106 cells) (Rattus norvegicus, UniProt P25961); details: UMR 106 cells treated with drug for 1 h; Figure 2A legend, adapted; ref Low et al., 2022 [20]; read-out: EC50 (cAMP Glo assay)
T1 construct: evaluated in UMR-106 cells (ATCC, Manassas, VA, USA) which express PTH1R; host or cells: UMR-106 cells
T1 sequence (P25961 27-591): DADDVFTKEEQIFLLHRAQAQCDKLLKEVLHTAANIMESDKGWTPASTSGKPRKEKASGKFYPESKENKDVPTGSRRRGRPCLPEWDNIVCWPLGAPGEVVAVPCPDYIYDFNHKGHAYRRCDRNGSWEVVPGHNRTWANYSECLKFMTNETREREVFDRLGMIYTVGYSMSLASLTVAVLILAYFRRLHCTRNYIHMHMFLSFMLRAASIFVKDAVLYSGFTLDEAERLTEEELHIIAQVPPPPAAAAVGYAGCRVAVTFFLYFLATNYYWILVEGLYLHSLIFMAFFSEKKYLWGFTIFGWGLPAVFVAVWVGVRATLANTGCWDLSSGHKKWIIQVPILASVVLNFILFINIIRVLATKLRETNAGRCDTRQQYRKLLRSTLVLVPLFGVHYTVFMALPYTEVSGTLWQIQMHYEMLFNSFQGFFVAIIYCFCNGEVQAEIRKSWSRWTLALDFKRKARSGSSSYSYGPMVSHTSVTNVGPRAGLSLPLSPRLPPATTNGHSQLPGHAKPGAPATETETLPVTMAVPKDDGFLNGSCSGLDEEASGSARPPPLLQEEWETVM

[2] = Text: A second question that logically arose is whether abaloparatide constituted the ideal payload for accelerating the fusion process. Although the PTH1R agonist, abaloparatide, has been well established as a bone anabolic agent, it is only clinically approved for treating osteoporosis. Most of abaloparatide’s applications have been limited to promoting systemic changes throughout the skeleton to reduce fracture risk.

abaloparatide
EC50 [1]: 0.66 nM | trabecular bone growth, clinical ([2]; clinically): promote trabecular bone growth | fracture repair efficacy of nontargeted abaloparatide ([2]; past efforts, ref not given): unsuccessful due to the lack of efficacy at systemically tolerable doses | trabecular bone growth, preclinical ([2]; preclinically): promote trabecular bone growth

B1: Ab46-D-Glu20: variant of abaloparatide linked to a linear 20 mer of D-glutamic acid that naturally accumulates on exposed hydroxyapatite (protein)
chain: AVSEHQLLHDKGKSIQDLRRRELLEKLLAKLHTAEIRATSEVSPNSEEEEEEEEEEEEEEEEEEEE
modifications: The C-terminal 20 Glu are all D-residues (linear D-Glu20, described in the text as a 20 mer of D-glutamic acid); Ab46 is tak
EC50 [1]: 0.48 nM
